Measured values from publication PMC7815716, “Mechanistic basis of breast cancer resistance protein inhibition by new indeno[1,2-b]indoles” (Scientific Reports, 2021).
Like-named read-outs stand apart in the source and are kept apart here.

What was measured:
ABCG2 [1] = molecular target: T1, ABCG2 (Homo sapiens, UniProt Q9UNQ0); experiment: ABCG2 ATPase activity, High-Five insect cell total membranes; format: biochemical; parameters: expressed in transfected cells
T1 sequence (Q9UNQ0 1-655): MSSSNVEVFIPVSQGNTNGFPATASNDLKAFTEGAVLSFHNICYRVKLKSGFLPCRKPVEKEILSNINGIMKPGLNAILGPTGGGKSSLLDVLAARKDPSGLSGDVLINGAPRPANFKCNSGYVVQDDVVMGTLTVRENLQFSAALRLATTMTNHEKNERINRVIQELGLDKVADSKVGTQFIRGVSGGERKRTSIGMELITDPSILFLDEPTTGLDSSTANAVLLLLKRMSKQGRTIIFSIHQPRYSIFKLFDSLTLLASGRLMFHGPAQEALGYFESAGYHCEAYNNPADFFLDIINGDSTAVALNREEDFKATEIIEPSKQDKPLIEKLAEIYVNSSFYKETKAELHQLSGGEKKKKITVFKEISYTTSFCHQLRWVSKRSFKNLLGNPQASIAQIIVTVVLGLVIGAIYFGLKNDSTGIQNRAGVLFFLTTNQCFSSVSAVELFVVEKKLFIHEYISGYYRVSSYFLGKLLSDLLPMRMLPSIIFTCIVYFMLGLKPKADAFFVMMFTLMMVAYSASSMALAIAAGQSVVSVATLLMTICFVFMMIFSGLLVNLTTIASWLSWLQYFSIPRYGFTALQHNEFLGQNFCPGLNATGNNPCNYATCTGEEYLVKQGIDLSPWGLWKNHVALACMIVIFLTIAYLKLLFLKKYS
Experimental: The ATPase assay was carried out as previously described. High-Five insect cell total membranes overexpressing ABCG2 were used at a concentration of 5 µg protein/tube in a final volume of 100 µL. The membranes were incubated in assay buffer containing 50 mM Tris–HCl, pH 6.8, 150 mM N-methyl-D-glucamine (NMDG)-Cl, 5 mM sodium azide, 1 mM EGTA, 1 mM ouabain, 2 mM DTT, and 10 mM MgCl2, in the presence or absence of sodium orthovanadate (0.3 mM). The protein-buffer mix was treated with the compounds at increasing concentrations (0.001–5 µM) and incubated for 20 min at 37 °C in the presence of ATP (5 mM). The reaction was stopped with the addition of 100 µL of 5% SDS, for color development was added 400 µL of Pi solution (sulfuric acid 36.2 N, water, ammonium molybdate and antimony potassium tartrate) and 200 µL of 1% ascorbic acid. The absorbance was measured after 10 min at 880 nm using a spectrophotometer Ultrospec 3100 pro (Amersham Biosciences).
Table S2. Effect of indeno[1,2-b]indole derivatives on the ATPase activity of ABCG2.The vanadate-sensitive ATPase activity of ABCG2 was measured using the total membranes of High-Five insect cells expressing this transporter as described previously [S5]. The EC50 (concentration required to achieve 50% stimulation) is given as the concentration ± SD (nM) of three independent experiments in duplicate.

H460MX20 cells = experiment: Sensitization of lung cancer cells overexpressing ABCG2 to SN-38, MTT assay; format: cell-based, human; details: H460MX20, SN-38 10 nM, 72 h, IC50 value or 5 µM
Experimental: (§1) Cell viability was evaluated with a 3-(4,5-dimethylthiazol-2-yl)-2,5-diphenyltetrazolium bromide (MTT) colorimetric assay. HEK293 WT and HEK293-ABCG2 cells were seeded into 96-well culture plates at a 1.5 × 10^4 cells/well density. After overnight incubation, the cells were treated with various concentrations of compounds (0–100 µM) for 72 h at 37 °C under 5% CO2. […] Sensitization experiments were also carried out on H460 and H460MX20 cells. For these experiments, H460 and H460MX20 cells were seeded into 96-well culture plates at 1.0 × 10^4 cells/well density. […] After the treatment, the culture medium was removed and 100 μL of a 0.5 mg.mL^−1 MTT solution was added. Cells were then incubated for 4 h at 37 °C under 5% CO2. The formazan crystals were dissolved with a solution of DMSO/ethanol (1:1) and the absorbance was measured at 570 nm using a Multiscan FC microplate reader (Thermo Scientific). The results were expressed as percentage of viable cells versus control cells (0.1% DMSO, v/v) taken as 100%.

ABCG2 [2] = molecular target: T1, ABCG2; experiment: Thermostabilization assay (ATPase activity after heating); format: biochemical; details: 10 µM, curves with or without ATP
Experimental: The thermal stability assay was performed according to the published. Total membrane prepared from High Five insect cells overexpressing the ABCG2 at 3 µg protein/tube concentration were incubated with assay buffer composed by 50 mM Tris–HCl, pH 6.8, 150 mM N-methyl-D-glucamine (NMDG)-Cl, 5 mM sodium azide, 1 mM ouabain and 2 mM DTT in the presence or absence of 0.3 mM orthovanadate at final volume of 50 µL. To evaluate the effect of those inhibitors over thermal stability, each sample was prepared with 12.5 mM MgCl2 or 6.25 mM ATP and incubated with a temperature range from 37 to 71 °C for 10 min using a thermocycler C1000 Touch (Bio-Rad, Hercules, CA). After incubation, 10 µL of 25 mM ATP or 50 mM MgCl2 (5 and 10 mM final concentration, respectively) was added and incubated at 37 °C/20 min to allow ATP hydrolysis. The reaction was stopped with the addition of 50 µL of Pi solution containing 1% ammonium molibdate, 2.5 N H2SO4 and 0.014% potassium-antimony tartrate. To evaluate the absorbance, the samples were transferred to a 96 well plate (50 µL/well), added 150 µL of 0.33% sodium ascorbate solution. The absorbance was measured after 15 min incubation at room temperature using the microplate reader Spectramax iD3 (Molecular Devices, San Jose, CA). The sensitive activity to vanadate (Vi) was calculated as the difference between the activity in the absence of Vi minus the activity in the presence of Vi to each temperature.

[3] = system: HEK293 WT and HEK293-ABCG2 cells; experiment: Intrinsic cytotoxicity of compounds, MTT assay; format: cell-based, human; details: HEK293-ABCG2 vs HEK293 WT, 72 h, 0.1–100 µM
Experimental: as §1

[4] = EC50 (nM ± SD) values of stimulation on the ATPase activity of ABCG2, vanadate-sensitive ATPase, High-Five insect cell total membranes
[5] = EC50 of stimulation of ABCG2 ATPase activity, approximate values

| SMILES | EC50 (ABCG2 [1]; approximate values, read-out: EC50 of stimulation of ABCG2 ATPase activity) [nM] | EC50 (ABCG2 [1]; vanadate-sensitive ATPase, High-Five insect cell total membranes, read-out: EC50 (nM ± SD) values of stimulation on the ATPase activity of ABCG2) [nM] | Chemosensitization to SN-38 (H460MX20 cells) | melting point [°C] | Thermostabilization effect (ABCG2 [2]) | Intrinsic cytotoxicity in ABCG2-transfected versus control cells (cross-resistance) [3] | EC50 (ABCG2 [1]; [4]) [nM] | EC50 (ABCG2 [1]; [5]) [nM] |
| --- | --- | --- | --- | --- | --- | --- | --- | --- |
| COc1cc2c(cc1OC)-c1c(c3c(n1CCc1ccccc1)CC(C)CC3=O)C2=O (stereo not drawn) [5e, 2,3-Dimethoxy-7-methyl-5-phenethyl-5,6,7,8-tetrahydroindeno[1,2-b]indole-9,10-dione] | ~170 | 170 ± 11 | chemoresistance phenotype was fully reversed | 235 | moderate effect | no apparent cross-resistance | – | – |
| COc1ccccc1CCn1c2c(c3c(O)cc(C)cc31)C(=O)c1ccccc1-2 [6a, 9-Hydroxy-7-methyl-5-(2-methoxyphenethyl)-5H-indeno[1,2-b]indol-10(5H)-one] | – | – | chemoresistance phenotype was fully reversed | – | moderate effect | no apparent cross-resistance | 2.9 ± 0.45 | ~3 |
| COc1ccc2[nH]cc(CCn3c4c(c5c(O)cccc53)C(=O)c3ccccc3-4)c2c1 [6c, 9-Hydroxy-5-(2-(5-methoxy-1H-indol-3-yl)ethyl)indeno[1,2-b]indol-10(5H)-one] | – | – | – | 95 | most pronounced effect | mild collateral sensitivity (CS) effect | 4.4 ± 0.71 | ~3 |
| COc1cccc(CCn2c3c(c4c(O)cccc42)C(=O)c2ccc(O)cc2-3)c1 [6d, 3,9-Dihydroxy-5-(3-methoxyphenethyl)indeno[1,2-b]indol-10(5H)-one] | – | – | – | 198 | most pronounced effect | mild collateral sensitivity (CS) effect | 3.2 ± 0.44 | ~3 |
